Data from patent US20100035865A1, “Sulfonamides and Pharmaceutical Compositions Thereof” (PFIZER INC, priority 2007, published 2010).
Where “and” joins values, the source holds several entries; their conditions need not be identical. Equal entries are not always repeated. Where two headings read alike, the source gives them in different places.

Test system: AMPA receptors
Test: AMPA ES Cell FLIPR Screen, G7330B (EC50 and % effect)
Format: cell-based, murine
Conditions: for EC50: ES cell-derived neurons, 32 uM AMPA challenge
Experimental: The murine ES cell line used was E14-Sx1-16C, which has a targeted mutation in the Sox1 gene, a neuroectodermal marker, that offers G418 resistance when the Sox1 gene is expressed (Stem Cell Sciences). ES cells were maintained undifferentiated as previously described (Roach). […] ES cells were plated on gelatin-coated dishes (BD Biosciences), the media was changed daily and the cells were dissociated with 0.05% Trypsin EDTA (Invitrogen) every other day.
Embryoid Body Formation: Prior to embryoid body (EB) formation the ES cells were weaned from FBS onto Knockout Serum Replacement (KSR) (Invitrogen). To form EBs, ES cells were dissociated into a single cell suspension then 3×10^6 cells were plated in bacteriology dishes (Nunc 4014) and grown as a suspension culture in NeuroEB-I medium that consisted of Knockout™ D-MEM (Invitrogen), supplemented with 10% KSR (Invitrogen), 0.2 mM L-Glutamine (Invitrogen), 0.1 mM MEM non-essential amino acids (Invitrogen), 30 μg/ml Gentamicin (Invitrogen), 1000 u/ml ESGRO (Chemicon), 0.1 mM 2-Mercaptoethanl (Sigma) and 150 ng/ml Transferrin (Invitrogen). The plates were put on a Stovall Belly Button shaker in an atmospheric oxygen incubator. The media was changed on day 2 of EB formation with NeuroEB-I and on day 4 with NeuroEB-II (NeuroEB-I plus 1 μg/ml mNoggin [R&D Systems]).
Neuronal Precursor Selection and Expansion: On day 5 of EB formation, EBs were dissociated with 0.05% Trypsin EDTA, and 4×10^6 cells/100 mm dish were plated on Laminin coated tissue culture dishes in NeuroII-G418 medium that consisted of a base medium of a 1:1 mixture of D-MEM/F12 supplemented with N2 supplements and NeuroBasal Medium supplemented with B27 supplement and 0.1 mM L-Glutamine (all from Invitrogen). The base medium was then supplemented with 10 ng/ml bFGF (Invitrogen), 1 μg/ml mNoggin, 500 ng/ml SHH-N, 100 ng/ml FGF-8b (R&D Systems), 1 μg/ml Laminin and 200 μg/ml G418 (Invitrogen) for selection of neuronal precursors expressing Sox-1. The plates were put in an incubator that contained 2% Oxygen and were maintained in these conditions. During the 6-day selection period, the NeuroII media was changed daily. On day 6, the surviving neuronal precursor foci were dissociated with 0.05% Trypsin EDTA and the cells were plated at a density of 1.5×10^6 cells/100 mm Laminin coated dish in NeuroII-G418 medium. The cells were dissociated every other day for expansion, and prepared for Cryopreservation at passage 3 or 4. The cryopreservation medium contained 50% KSR, 10% Dimethyl Sulfoxide (DMSO) (Sigma) and 40% NeuroI-G418I medium. Neuronas precursors were crypreserved at a concentration of 4×10^6cells/ml and 1 ml/cryovial in a controlled rate freezer overnight then transferred to an ultra-low freezer or liquid nitrogen for long-term storage,
Neuronal Differentiation: Cryopreserved ES cell-derived neuronal precursors were thawed by the rapid thaw method in a 37-degree water-bath. The cells were transferred from the cryovial to a 100 mm Laminin coated tissue culture dish that already contained NeuroII-G418 that had been equilibrated in a 2% Oxygen incubator. The media was changed with fresh NeuroII-G418 the next day. The cells were dissociated every other day as described above for expansion to generate enough cells to plate for the screen. For the screen, the cells were plated into 384-well poly-d-lysine coated tissue culture dishes (BD Biosciences) by the automated SelecT at a cell density of 6K cells/well in differentiation medium NeuroIII that contained a 4:1 ratio of the NeuroBasalMedium/B27:D-MEM/F12/N2 supplemented with 1 μM cAMP (Sigma), 200 μM Ascorbic Acid (Sigma), 1 μg/ml Laminin (Invitrogen) and 10 ng/ml BDNF (R&D Systems). The plates were put in an incubator with 2% Oxygen and allowed to complete the differentiation process for 7 days. The cells could then be used over a 5-day period for the high throughput screen.
Procedure for AMPA ES Cell FLIPR Screen […]

[1] = Dose 32.0 uM, individual determinations
[2] = individual determinations, read-out: G7330B (U): EC50
[3] = mean of individual determinations (range and n in cells below), read-out: G7330B mean EC50
[4] = Dose 31.6 uM, individual determinations

Structure (SMILES)	EC50 [2]	EC50 [3]	G7330B (U): % Effect [1]	G7330B (U): % Effect [4]
CC(C)S(=O)(=O)NC1COCCC1c1ccc(-c2ccccc2)cc1 (stereo not drawn) [Example 30, Propane-2-sulfonic acid(trans-4-biphenyl-4-yl-tetrahydro-pyran-3-yl)-amide]	5.39 µM and > 31.6 µM and 6.36 µM	> 10.3 µM	119% and 113% and 126%	–
CC(C)S(=O)(=O)N[C@@H]1COCC[C@H]1c1ccc(-c2ccc(S(C)(=O)=O)cc2)cc1 [Example 37, Propane-2-sulfonic acid[trans-4-(4′-methanesulfonyl-biphenyl-4-yl)-tetrahydro-pyran-3-yl]-amide]	> 10 µM	> 10 µM	–	–
CC(=O)N1CCC(c2ccc(-c3ccccc3)cc2)C(NS(=O)(=O)C(C)C)C1 (stereo not drawn) [Example 43, Propane-2-sulfonic acid(trans-1-acetyl-4-biphenyl-4-yl-piperidin-3-yl)-amide]	> 31.6 µM	> 31.6 µM	–	85.0% and 92.2% and 102%
CCN1CC[C@@H](c2ccc(-c3ccccc3)cc2)[C@H](NS(=O)(=O)C(C)C)C1 (relative stereo) [Example 5, propane-2-sulfonic acid (trans-4-biphenyl-4-yl-1-ethyl-piperidin-3-yl)-amide]	> 31.6 µM	> 31.6 µM	–	76.3% and 78.8%
CC(C)S(=O)(=O)N[C@@H]1CCN(C)C[C@H]1c1ccc(NC(=O)c2ccccc2)cc1 (relative stereo) [Example 44, N-{4-[trans-1-Methyl-4-(propane-2-sulfonylamino)-piperidin-3-yl]-phenyl}-benzamide]	> 31.6 µM	> 31.6 µM	–	1.85% and 1.10% and 5.81%
CC(C)S(=O)(=O)N[C@@H]1CCN(C)C[C@H]1c1ccc(NC(=O)c2cc(F)cc(F)c2)cc1 (relative stereo) [Example 45, 3,5-Difluoro-N-{4-[trans-1-methyl-4-(propane-2-sulfonylamino)-piperidin-3-yl]-phenyl}-benzamide]	> 31.6 µM	> 31.6 µM	–	−0.114% and 0.0432% and −0.344%
CC(C)S(=O)(=O)NC1CCNCC1c1ccc(-c2ccccc2Cl)cc1 (stereo not drawn) [Example 22, Propane-2-sulfonic acid[trans-3-(2′-chloro-biphenyl-4-yl)-piperidin-4-yl]-amide]	> 32 µM	> 32 µM	18.9% and 23.3% and 17.1%	–
CC(=O)N1CC[C@@H](NS(=O)(=O)C(C)C)[C@H](c2ccc(NC(=O)c3ccccc3)cc2)C1 (relative stereo) [Example 39, N-{4-[trans-1-Acetyl-4-(propane-2-sulfonylamino)-piperidin-3-yl]-phenyl}-benzamide]	20.2 µM	20.2 µM	–	145% and 142%
CC(C)S(=O)(=O)NC1CCNCC1c1ccc(-c2cc(Cl)ccc2Cl)cc1 (stereo not drawn) [Example 23, Propane-2-sulfonic acid[trans-3-(2′,5′-dichloro-biphenyl-4-yl)-piperidin-4-yl)]-amide]	> 32 µM	> 32 µM	10.1% and 9.71% and 6.91%	–
CC(C)S(=O)(=O)NC1CN(S(C)(=O)=O)CCC1c1ccc(-c2ccccc2)cc1 (stereo not drawn) [Example 6, propane-2-sulfonic acid (trans-4-biphenyl-4-yl-1-methanesulfonyl-piperidin-3-yl-amide]	> 31.6 µM	> 31.6 µM	–	0.710% and −1.26% and 0.0628%
CC(C)S(=O)(=O)N[C@@H]1CN(C)CC[C@H]1c1ccc(-c2ccccc2)cc1 [Example 4, Propane-2-sulfonic acid ((3S,4S)-4-biphenyl-4-yl-1-methyl-piperidin-3-yl)-amide]	> 32 µM	> 32 µM	4.29% and 2.21% and 2.27% and 2.45% and 2.50% and 6.32% and 2.96% and 5.62% and 0.525%	–
CC(C)S(=O)(=O)NC1CCNCC1c1ccc(-c2ccc(C#N)cc2)cc1 (stereo not drawn) [Example 19, Propane-2-sulfonic acid[trans-3-(4′-cyano-biphenyl-4-yl)-piperidin-4-yl]-amide]	> 32 µM	> 32 µM	6.07% and 7.12% and 6.19%	–
CC(C)S(=O)(=O)NC1COCCC1(O)c1ccc(-c2ccccc2)cc1 [Example 42, Propane-2-sulfonic acid((3R,4S)-rel-4-biphenyl-4-yl-4-hydroxy-tetrahydro-pyran-3-yl)-amide]	11.9 µM	11.9 µM	–	145% and 142% and 152%
CC(C)S(=O)(=O)NC1CCN(C)CC1c1ccc(-c2ccc(C#N)cc2)cc1 (stereo not drawn) [Example 24, Propane-2-sulfonic acid[trans-3-(4′-cyano-biphenyl-4-yl)-1-methyl-piperidin-4-yl]-amide]	> 31.6 µM	> 31.6 µM	–	14.5% and 19.9% and 12.7%
CC(C)S(=O)(=O)NC1CCN(S(C)(=O)=O)CC1c1ccc(-c2ccccc2)cc1 (stereo not drawn) [Example 26, Propane-2-sulfonic acid(trans-3-biphenyl-4-yl-1-methanesulfonyl-piperidin-4-yl)-amide]	> 32 µM	> 32 µM	13.3% and 10.8% and 9.95%	–

Now those with a lower EC50 [3], led by results:

EC50 [2]	EC50 [3]	Structure (SMILES)	G7330B (U): % Effect [1]	G7330B (U): % Effect [4]
6.44 µM	6.44 µM	CC(=O)N1CCC(NS(=O)(=O)C(C)C)C(c2ccc(-c3ccc(C#N)cc3)cc2)C1 (stereo not drawn) [Example 28, Propane-2-sulfonic acid[trans-1-acetyl-3-(4′-cyano-biphenyl-4-yl)-piperidin-4-yl]-amide]	128% and 132% and 116%	–
1.25 µM	1.25 µM	CC(C)S(=O)(=O)N[C@@H]1COCC[C@H]1c1ccc(-c2ccccc2C#N)cc1 [Example 34, Propane-2-sulfonic acid[trans-4-(2′-cyano-biphenyl-4-yl)-tetrahydro-pyran-3-yl]-amide]	–	137%
1.94 µM	1.94 µM	CCOc1ccccc1-c1ccc(C2CCOCC2NS(=O)(=O)C(C)C)cc1 (stereo not drawn) [Example 33, Propane-2-sulfonic acid[trans-4-(2′-ethoxy-biphenyl-4-yl)-tetrahydro-pyran-3-yl]-amide]	–	122% and 121%
1.73 µM and 1.44 µM and 2.16 µM and 1.96 µM and 1.28 µM and 1.51 µM and 2.74 µM and 2.29 µM and 3.61 µM and 3.13 µM	2.07 µM	CC(=O)N1CCC(NS(=O)(=O)C(C)C)C(c2ccc(-c3ccccc3C#N)cc2)C1 (stereo not drawn) [Example 29, Propane-2-sulfonic acid[trans-1-acetyl-3-(2′-cyano-biphenyl-4-yl)-piperidin-4-yl]-amide]	–	201% and 204% and 155% (2×) and 159% and 194% and 364% and 391% and 363% and 195% (3×) and 187% and 150% and 151% and 202%
7.17 µM	7.17 µM	CC(C)S(=O)(=O)NC1CCOCC1c1ccc(-c2ccccc2)cc1 (stereo not drawn) [Example 17, Propane-2-sulfonic acid(cis-3-biphenyl-4-yl-tetrahydro-pyran-4-yl)-amide]	150% and 138% and 125%	–
2.57 µM	2.57 µM	CC(C)S(=O)(=O)NC1COCCC1c1ccc(-c2ccc(F)cc2)cc1 (stereo not drawn) [Example 32, Propane-2-sulfonic acid[trans-4-(4′-fluoro-biphenyl-4-yl)-tetrahydro-pyran-3-yl]-amide]	–	120% and 127% and 115%
6.92 µM	6.92 µM	CC(=O)N1CCC(NS(=O)(=O)C(C)C)C(c2ccc(-c3ccccc3)cc2)C1 (stereo not drawn) [Example 27, propane-2-sulfonic acid(trans-1-acetyl-3-biphenyl-4-yl-piperidin-4-yl)-amide]	136% and 134% and 127%	–
